Literature values as cited in patent US20190008798A1, “Coenzyme Q10 in the preventive treatment of type 2 diabetes” (Pharma Nord ApS, priority 2017, published 2019).

How the values were obtained:
[1] = system: adipose tissue; settings: mice

COC1=C(OC)C(=O)C(C/C=C(\C)CC/C=C(\C)CC/C=C(\C)CC/C=C(\C)CC/C=C(\C)CC/C=C(\C)CC/C=C(\C)CC/C=C(\C)CC/C=C(\C)CCC=C(C)C)=C(C)C1=O [Q10, ubidecarenone]
insulin sensitivity in the adipose tissue [1]: improves insulin sensitivity
mortality in subjects with cardiac failure: decrease mortality
